Assay results: patent publication US6710060B2, “4-hydroxypiperidine derivatives having antiarrhythmic activity” (Mochida Pharmaceutical Co., Ltd., priority 1999, dated 2004)
Where a name gives a salt, the structure may show the parent alone.

tested on: Electrocardiogram in Rats; assay: Effect on electrocardiogram in rats; assay type: in vivo; conditions: 5 mg/kg intravenous, anesthetized rat, two minutes after administration
Method: [Effect on Electrocardiogram in Rats]
After anesthetizing with 1.5 g/kg (s.c.) of urethane, a rat was fixed on a warm plate at its supination. Polyethylene tubes for administering a test compound and for measuring the blood pressure were inserted into and fixed to the jugular vein and femoral artery, respectively. The blood pressure of the artery was measured using a pressure transducer. An electrode was attached to the animal, electrocardiograms were led by the standard lead II. The heart rate was measured by using a heart rate counter. The test compound was given by intravenous injection when the blood pressure and heat rate had been stabilized after the operation. […] Each parameter on the electrocardiogram was processed using an analysis software running on the personal computer to calculate the rate of change as compared with that before administration.

Row | SMILES | PQ Distance (rate of change) | QRS Width (rate of change)
1 | CCCCOc1ccc(N(C)CCC2(O)CCN(Cc3ccc4c(c3)OCO4)CC2)cc1 [Example 162, 4-[2-[N-(4-n-butoxyphenyl)-N-methylamino]ethyl]-1-(3,4-methylenedioxyphenylmethyl)piperidin-4-ol dihydrochloride] | — (The rate of change at two minutes after administration is 15% or less as compared with that before administration.) | — (The rate of change at two minutes after administration is 15% or less as compared with that before administration.)
2 | CCCCOc1ccc(N(C)CCC2(O)CCN(Cc3ccc(F)cc3)CC2)cc1 [Example 177, 4-[2-[N-(4-n-butoxyphenyl)-N-methylamino]ethyl]-1(4-fluorophenylmethyl)piperidin-4-ol dihydrochloride] | — (The rate of change at two minutes after administration is 15% or less as compared with that before administration.) | — (The rate of change at two minutes after administration is 15% or less as compared with that before administration.)
3 | CCCCOc1ccc(N(C)CC(O)C2(O)CCN(CCc3ccc(F)cc3)CC2)cc1 (centres unmarked) [Example 196, 4-[2-[N-(4-n-butoxyphenyl)-N-methylamino]-1-hydroxyethyl]-1-[2-(4-fluorophenyl)ethyl]piperidin-4-ol dihydrochloride] | — (The rate of change at two minutes after administration is 15% or less as compared with that before administration.) | — (The rate of change at two minutes after administration is 15% or less as compared with that before administration.)
4 | CCCCOc1ccc(N(C)CCC2(O)CCN(CC(O)c3ccc(F)cc3)CC2)cc1 (centres unmarked) [Example 198, 4-[2-[N-(4-n-butoxyphenyl)-N-methylamino]ethyl]-1-[2-(4-fluorophenyl)-2-hydroxyethyl]piperidin-4-ol dihydrochloride] | — (The rate of change at two minutes after administration is 15% or less as compared with that before administration.) | — (The rate of change at two minutes after administration is 15% or less as compared with that before administration.)
5 | CCCCOc1ccc(N(C)CCC2(OC)CCN(Cc3ccccc3)CC2)cc1 [Example 201, 1-benzyl-4-methoxy-4-[2-[N-(4-n-butoxyphenyl)-N-methylamino]ethyl]piperidine dihydrochloride] | — (The rate of change at two minutes after administration is 15% or less as compared with that before administration.) | — (The rate of change at two minutes after administration is 15% or less as compared with that before administration.)
6 | CC(C)Oc1ccc(N(C)CCC2(O)CCN(Cc3ccc(C#N)cc3)CC2)cc1 [Example 226, 1-(4-cyanophenylmethyl)-4-[2-[N-methyl-N-(4-isopropoxyphenyl)amino]ethyl]piperidin-4-ol dihydrochloride] | — (The rate of change at two minutes after administration is 15% or less as compared with that before administration.) | — (The rate of change at two minutes after administration is 15% or less as compared with that before administration.)
7 | CC(C)Oc1ccc(N(C)CCC2(O)CCN(Cc3cccs3)CC2)cc1 [Example 254, 4-[2-[N-methyl-N-(4-isopropoxyphenyl)amino]ethyl]-1(2-thienylmethyl)piperidin-4-ol dihydrochloride] | — (The rate of change at two minutes after administration is 15% or less as compared with that before administration.) | — (The rate of change at two minutes after administration is 15% or less as compared with that before administration.)

tested on: not given; assay: not given; conditions: not given

Row | melting point [°C] | SMILES
8 | 76.2 to 76.8 | CC(C)Oc1ccc(N(C)CCC2(O)CCN(Cc3ccc4ccccc4c3)CC2)cc1 [Example 80, 4-[2-[N-methyl-N-(4-isopropoxyphenyl)amino]ethyl]-1-(2-naphthylmethyl)piperidin-4-ol]
9 | 62.5 to 63.1 | CC(C)Oc1ccc(N(C)CCC2(O)CCN(Cc3ccc([N+](=O)[O-])cc3)CC2)cc1 [Example 84, 4-[2-[N-methyl-N-(4-isopropoxyphenyl)amino]ethyl]-1-(4-nitrophenylmethyl)piperidin-4-ol]
10 | 60.8 to 61.1 | CC(C)Oc1ccc(N(C)CCC2(O)CCN(Cc3cccc(C(F)(F)F)c3)CC2)cc1 [Example 85, 4-[2-[N-methyl-N-(4-isopropoxyphenyl)amino]ethyl]-1-[3-(trifluoromethyl)phenylmethyl]piperidin-4-ol]
11 | 77.6 to 77.9 | CC(C)Oc1ccc(N(C)CCC2(O)CCN(Cc3ccc(F)cc3F)CC2)cc1 [Example 87, 1-(2,4-difluorophenylmethyl)-4-[2-[N-methyl-N-(4-isopropoxyphenyl)amino]ethyl]piperidin-4-ol]
12 | 58.8 to 62.8 | CC(C)Oc1ccc(N(C)CCC2(O)CCN(Cc3ccc(F)c(C(F)(F)F)c3)CC2)cc1 [Example 88, 1-[4-fluoro-3-(trifluoromethyl)phenylmethyl]-4-[2-[N-methyl-N-(4-isopropoxyphenyl)amino]ethyl]piperidin-4-ol]
13 | 84.7 to 85.1 | CC(C)Oc1ccc(N(C)CCC2(O)CCN(Cc3ccc(OC(F)(F)F)cc3)CC2)cc1 [Example 89, 4-[2-[N-methyl-N-(4-isopropoxyphenyl)amino]ethyl]-1-(4-trifluoromethoxyphenylmethyl)piperidin-4-ol]
14 | 65.1 to 66.1 | CC(C)Oc1ccc(N(C)CCC2(O)CCN(Cc3ccc(OC(C)C)cc3F)CC2)cc1 [Example 90, 1-(2-fluoro-4-isopropoxyphenylmethyl)-4-[2-[N-methyl-N-(4-isopropoxyphenyl)amino]ethyl]piperidin-4-ol]
15 | 99.8 to 100.9 | CC(C)Oc1ccc(N(C)CCC2(O)CCN(Cc3ccc(Br)cc3F)CC2)cc1 [Example 93, 1-(4-bromo-2-fluorophenylmethyl)-4-[2-[N-methyl-N-(4-isopropoxyphenyl)amino]ethyl]piperidin-4-ol]
16 | 52.5 to 54.6 | CC(C)Oc1ccc(N(C)CCC2(O)CCN(Cc3cccc(F)c3)CC2)cc1 [Example 94, 1-(3-fluorophenylmethyl)-4-[2-[N-methyl-N-(4-isopropoxyphenyl)amino]ethyl]piperidin-4-ol]
17 | 50.3 to 51.6 | CCOC(=O)c1ccc(CN2CCC(O)(CCN(C)c3ccc(OC(C)C)cc3)CC2)cc1 [Example 106, 1-[4-(ethoxycarbonyl)phenylmethyl]-4-[2-[N-methyl-N-(4-isopropoxyphenyl)amino]ethyl]piperidin-4-ol]
18 | 66.2 to 68 | CSc1ccc(CN2CCC(O)(CCN(C)c3ccc(OC(C)C)cc3)CC2)cc1 [Example 109, 4-[2-[N-methyl-N-(4-isopropoxyphenyl)amino]ethyl]-1-[4-(methylthio)phenylmethyl]piperidin-4-ol]
19 | 53.8 to 54.7 | COC(=O)c1cccc(CN2CCC(O)(CCN(C)c3ccc(OC(C)C)cc3)CC2)c1 [Example 111, 1-[3-(methoxycarbonyl)phenylmethyl]-4-[2-[N-methyl-N-(4-isopropoxyphenyl)amino]ethyl]piperidin-4-ol]
20 | 152.3 to 153.1 | CC(C)Oc1ccc(NCCC2(O)CCN(Cc3ccc(C(F)(F)F)cc3)CC2)cc1 [Example 125, 4-[2-[N-(4-isopropoxyphenyl)amino]ethyl]-1-[4-(trifluoromethyl)phenylmethyl]piperidin-4-ol]
21 | 94.3 to 95.8 | CCOc1ccc(N(C)CCC2(O)CCN(C(c3ccccc3)c3ccccc3)CC2)cc1 [Example 133, 1-diphenylmethyl-4-[2-[N-(4-ethoxyphenyl)-N-methylamino]ethyl]piperidin-4-ol]
22 | 170 to 171.2 | CC(C)Oc1ccc(NCCC2(O)CCN(C(c3ccccc3)c3ccccc3)CC2)cc1 [Example 136, 1-diphenylmethyl-4-[2-[N-(4-isopropoxyphenyl)-amino]ethyl]piperidin-4-ol]
